# Experimental data from patent US12612392B2, “Compound, pharmaceutical compositions containing same, synthesis method therefor and use thereof” (SHENZHEN ZHONGGE BIOLOGICAL TECHNOLOGY CO., LTD., priority 2022, dated 2026).
# Assays:
# [1] = test system: HEK293T/17-ATF4 uORF-Luc-Puro monoclonal cells; test: Cell activity test: ATF4 luciferase reporter, thapsigargin-induced stress; type: cell-based; details: Homo sapiens, HEK-293T; ATF4 reporter expression, 50 nM thapsigargin, 6 hours
# Excerpt: The ATF4 luciferase reporter plasmid consists of two parts, i.e., the 5′ untranslated region sequence of the ATF4 gene and the luciferase coding sequence. Specifically, the ATF4 5′ untranslated region sequence (NCBI database number BC022088.2) containing two upstream open reading frames (uORFs), and the firefly luciferase encoding gene were cloned into the pLVX-Puro vector (YouBio, VT1465). The lentivirus packaging plasmids were psPAX2 (YouBio, VT1444) and pMD2.G (YouBio, VT1443). HEK293T/17 cells were transfected with the above three plasmids simultaneously using X-tremeGENE 9 DNA transfection reagent, and after 48 hours, a culture medium containing lentivirus was collected. HEK293T/17 cells transduced with the virus were screened with 1 μg/mL puromycin, and then monoclonal cells were obtained by limiting dilution.
# By using this cell line and the cold fluorescence readings, the translational regulation of ATF4 can be detected, and the activity of the eIF2B activator can be tested. The specific experimental process is as follows: 6000 HEK293T/17-ATF4 uORF-Luc-Puro monoclonal cells were plated in a 384-well plate and allowed to adhere overnight. The test compounds were dissolved in DMSO and added together with 50 nM thapsigargin to the cell culture medium and incubated for 6 hours, wherein the thapsigargin was used to cause cellular stress and upregulate the protein translation of ATF4. Six hours after the addition, the cells were lysed using the One-Glo Luciferase Assay Kit (Promega #E6120), and then the cold fluorescence values were read using the LUM program of the EnVision 2104 plate reader.
# The ATF4 reporter expression % was calculated as follows:
# [formula] • ave_vc: average signal value of negative control • ave_pc: average signal value of positive control • ave_sample: average signal value of sample
# The dose-response curves were fitted, and the EC50 values were calculated.
# The nonlinear regression log (inhibitor) vs. response—variable slope (four parameters) method of GraphPad 9 software was used to fit the corresponding relationship between the ATF4 reporter expression % and the compound concentration.
# X-axis: log value of compound concentration; Y-axis: ATF4 reporter expression %; Top: evaluation of upper asymptote of curve; Bottom: evaluation of lower asymptote of curve; Hillslope: slope of the fitted curve.
# [2] = In vitro liver microsome stability; type: in vitro ADME; details: liver microsomes, NADPH, 37° C.
# Procedure: A 5 mM MgCl2 100 mM K-Mg buffer solution was pre-heated. 5 μL of a 10 mM compound and a reference stock solution were added to 95 μL of acetonitrile (ACN) to prepare a spiked solution. 1.5 μL of a 500 µM spiked solution and 18.75 μL of 20 mg/mL liver microsomes were added to 479.8 μL of the K-Mg buffer solution. NADPH was dissolved in the K-Mg-buffer solution to prepare an NADPH stock solution ([…]). At different time points (0, 5, 15, 30 and 45 minutes), 30 μL of a 1.5 μM spiked solution containing the microsomes was evenly dropped into an assay plate. The plate was preincubated at 37° C. for 5 minutes. At 0 min, 200 μL of ACN containing IS (internal standard, tolbutamid/terfenadine) was added to the wells, and then 15 μl of the NADPH stock solution (6 mM) was added. For other time points, 15 μL of the NADPH stock solution (6 mM) was added to the wells to initiate the reaction and start the timing. At 5, 15, 30 and 45 min, the reaction was stopped by adding 200 μL of ACN containing IS to the corresponding wells of the plate. After quenching, the plate was shaken at 600 rpm for 10 minutes and then centrifuged at 4000 rpm for 50 minutes. 80 μL of the supernatant from each well was transferred to a 96-well sample plate containing 160 μL of pure water for UPLC/MS/MS analysis.
# [3] = Cell membrane permeability (A to B / B to A, efflux ratio); type: in vitro ADME
# Procedure: The test compounds were diluted from 10 mM stock solutions to a concentration of 10 μM using the transport buffer (HBSS+BSA) and applied to the apical or basolateral side of the cell monolayer. After the incubation at 37° C., 5% CO2 and 95% relative humidity for 120 minutes, the permeability of the test compounds in the A to B direction or the B to A direction was tested in duplicate. In addition, the efflux ratio of each compound was determined. The test substances and reference substances were quantitatively analyzed by the LC-MS/MS method based on the analyte/IS peak area ratio.
# CYP2C19 = target: T1, CYP2C19 (Homo sapiens, UniProt P33261); test: P450 enzyme inhibition, CYP2C19; type: in vitro ADME; details: human liver microsome, substrate Mephenytoin
# T1 construct: A phosphate buffer solution of liver microsomes was prepared; from tissue; host or cells: human liver microsomes
# Procedure: (§1) A phosphate buffer solution of liver microsomes was prepared. 169 μL of the phosphate buffer solution of liver microsomes and 1 μL of working solutions of various concentrations of test compounds or positive control compounds were added to a 96-well plate. The culture plate was placed in a water bath and pre-heated at 37° C. for 15 minutes. After the incubation, 10 μL of substrates were added to the culture plate (1 μL of substrates and 9 μL of the K-Mg buffer solution were added to the plate for CYP3A4-T). The incubation mixture was mixed on a rotating mixer for 10 seconds, and then 20 μL of a 10 mM NADPH solution was added to start the reaction at a final concentration of 1 mM. The experiment was repeated twice. At the predetermined time points listed in Table 4, the reaction was quenched by adding 400 μL of the quenching solution (cold ACN containing 500 nM mephetedrine and 10 nM terfenadine). Centrifugation was performed at 3220 g for 50 minutes at 4° C. 100 μl of the supernatant was transferred to a new plate. The supernatant was diluted with 100 μL of pure water. The mixture was mixed evenly, and the sample was analyzed by UPLC-MS/MS.
# CYP2D6 = target: T2, CYP2D6 (Homo sapiens, UniProt P10635); test: P450 enzyme inhibition, CYP2D6; type: in vitro ADME; details: human liver microsome, substrate Dextromethorphan
# T2 construct: A phosphate buffer solution of liver microsomes was prepared; from tissue; host or cells: human liver microsomes
# Procedure: as §1
# CYP3A4 = target: T3, CYP3A4 (Homo sapiens, UniProt P08684); test: P450 enzyme inhibition, CYP3A4; type: in vitro ADME; details: human liver microsome, substrate Testosterone
# T3 construct: A phosphate buffer solution of liver microsomes was prepared; from tissue; host or cells: human liver microsomes
# Procedure: as §1
# T2 sequence (P10635 whole entry): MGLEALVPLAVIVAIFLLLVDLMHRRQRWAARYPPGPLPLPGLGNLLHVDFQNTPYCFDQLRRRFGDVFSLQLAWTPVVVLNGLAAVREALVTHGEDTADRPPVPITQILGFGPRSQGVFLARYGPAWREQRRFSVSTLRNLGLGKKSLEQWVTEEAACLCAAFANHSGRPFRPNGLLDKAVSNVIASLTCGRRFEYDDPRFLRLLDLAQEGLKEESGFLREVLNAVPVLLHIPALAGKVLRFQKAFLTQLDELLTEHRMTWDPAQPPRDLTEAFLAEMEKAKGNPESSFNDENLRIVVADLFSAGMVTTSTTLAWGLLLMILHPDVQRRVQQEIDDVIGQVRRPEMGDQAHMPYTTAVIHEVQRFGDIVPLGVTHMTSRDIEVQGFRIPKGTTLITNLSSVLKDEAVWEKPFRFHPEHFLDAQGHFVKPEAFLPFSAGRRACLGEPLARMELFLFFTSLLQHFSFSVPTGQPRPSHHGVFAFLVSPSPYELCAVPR
# T1 sequence (P33261 whole entry): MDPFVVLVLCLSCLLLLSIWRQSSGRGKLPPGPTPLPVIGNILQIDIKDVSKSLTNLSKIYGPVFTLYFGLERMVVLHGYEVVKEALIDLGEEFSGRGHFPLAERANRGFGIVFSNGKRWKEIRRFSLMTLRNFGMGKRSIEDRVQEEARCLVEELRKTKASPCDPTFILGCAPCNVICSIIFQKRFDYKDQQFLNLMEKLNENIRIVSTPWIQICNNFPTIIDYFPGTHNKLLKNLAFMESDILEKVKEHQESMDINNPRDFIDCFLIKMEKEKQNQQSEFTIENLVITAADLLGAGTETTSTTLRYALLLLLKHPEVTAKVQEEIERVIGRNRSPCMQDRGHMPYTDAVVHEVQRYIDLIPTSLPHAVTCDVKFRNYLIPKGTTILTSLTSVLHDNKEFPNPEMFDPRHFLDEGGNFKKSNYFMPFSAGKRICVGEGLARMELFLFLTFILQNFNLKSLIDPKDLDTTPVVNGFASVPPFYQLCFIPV
# T3 sequence (P08684 whole entry): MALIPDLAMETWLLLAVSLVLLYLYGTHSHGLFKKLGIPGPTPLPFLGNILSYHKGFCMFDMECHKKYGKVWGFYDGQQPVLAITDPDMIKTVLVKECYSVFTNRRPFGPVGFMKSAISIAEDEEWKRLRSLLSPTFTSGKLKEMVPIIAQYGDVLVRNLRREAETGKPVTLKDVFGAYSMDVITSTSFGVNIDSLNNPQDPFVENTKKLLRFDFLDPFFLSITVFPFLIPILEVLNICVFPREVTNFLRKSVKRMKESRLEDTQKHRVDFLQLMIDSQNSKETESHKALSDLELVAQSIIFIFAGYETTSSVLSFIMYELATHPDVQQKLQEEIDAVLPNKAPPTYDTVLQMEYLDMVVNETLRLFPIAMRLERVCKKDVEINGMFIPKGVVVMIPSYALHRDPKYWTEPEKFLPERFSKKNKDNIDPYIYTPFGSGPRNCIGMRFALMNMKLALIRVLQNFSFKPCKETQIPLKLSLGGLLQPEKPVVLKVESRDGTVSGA
smiles,measurement,setting,value
O=C(COc1ccc(Cl)c(F)c1)N[C@H]1CC[C@H](c2nnc(N3CC(OC(F)(F)F)C3)o2)CC1 [Compound 6],EC50,[1],< 0.001 µM
same,half-life at 1 µM,[2],> 1.5 h
same,"efflux ratio at 120 min, 10 µM",[3],0.71
same,"Papp A→B at 120 min, 10 µM",[3]; 37° C.,25.8 ×10⁻⁶ cm/s
same,"Papp B→A at 120 min, 10 µM",[3]; 37° C.,18.4 ×10⁻⁶ cm/s
same,IC50,CYP2C19,> 10 µM
same,IC50,CYP2D6,> 30 µM
same,IC50,CYP3A4,> 30 µM
